These results are taken from US11345701B1, “KRAS mutant protein inhibitors” (Jacobio Pharmaceuticals Co., Ltd., priority 2021, dated 2022).

Data set [1] has as its system SW837 (KRAS^G12C) xenograft. The experiment in a line: Safety exploration in SW837 (KRAS G12C) xenograft model. It is filed as in vivo. Conditions: 400 mg/kg, po, QD for 22 days, female NOD SCID mice, FIG. 2. As to the method: SW837 (KRAS^G12C) cells (1.0E+07 cells) were injected subcutaneously into the right flank of female NOD SCID mice (6-8 weeks) in a mixture with PBS and Matrigel (Corning) (PBS/Matrigel=1:1(v/v)). Mice were monitored daily and caliper measurements began when tumors became visible. Tumor volume was calculated by measuring two perpendicular diameters using the following formula: (L*W^2)/2 in which L and W refer to the length and width tumor diameter respectively. After mice were grouped to study the efficacy, the remaining mice (n=8) were used to explore the safety. The mice were treated with 400 mg/kg Compound 2-1 (po, QD) for 22 days, and mice body weight was measured twice a week during treatment. From FIG. 2, it can be seen that the Compound 2-1 has good safety.

A short description of data set [2]: Cynomolgus monkey pharmacokinetic study. Conditions: for CL / VSS / AUC0-24h / Cmax / Oral BA (F %): cynomolgus monkey; for CL / VSS: 1 mg/kg, iv; for AUC0-24h / Cmax / Oral BA (F %) / AUC0-24 h relative to the control compound Amg-510: 3 mg/kg, po. Type of data set: in vivo. As to the method:
The purpose of this study was to evaluate the pharmacokinetic properties of compounds in cynomolgus monkey following single dose administration. The day before administration, monkeys were fasted overnight and free access to water. Four monkeys are needed for each compound and the four monkeys were divided into two groups, group A and group B (one male (♂) and one female (♀) in each group). Monkeys in group A were treated with a single 1 mg/kg dose of compound (iv). Monkeys in group B were treated with a single 3 mg/kg dose of compound (po). For monkeys in group A, blood samples were collected at pre-dose, and at the time point of 0.083, 0.25, 0.5, 1, 2, 4, 6, 8 and 24 h post-dose. For monkeys in group B, blood samples were collected at pre-dose, and at the time point of 0.25, 0.5, 1, 2, 4, 6, 8 and 24 h post-dose. Blood samples were placed on ice until centrifugation to obtain plasma samples. The plasma samples were stored at −80° C. until analysis. The concentration of compound in plasma samples was determined using a LC-MS/MS method.

`C=CC(=O)N1CCN(c2nc(=O)n(-c3c(C)ccnc3C(C)C)c3nc(-c4c(N)c(F)c(F)c(F)c4F)c(F)cc23)[C@@H](C)C1` (atropisomer, axis not shown; (M)) [Compound 2-1, (M)-4-((S)-4-acryloyl-2-methylpiperazin-1-yl)-7-(2-amino-3,4,5,6-tetrafluorophenyl)-6-fluoro-1-(2-isopropyl-4-methylpyridin-3-yl)pyrido[2,3-d]pyrimidin-2(1H)-one]: the “Safety judged from mice body weight” value in data set [1] is reported as “good safety”. Besides, in data set [2] (female), the CL is 8.20 mL/min/kg, the VSS worked out at 0.507 L/kg, the AUC0-24h was determined as 2494 ng·h/mL and the highest concentration (Cmax) is reported as 1060 ng/mL. Moreover, the “Oral BA (F %)” value in data set [2] (female) amounted to 41.2%. In data set [2] (male), this compound yielded a CL of 8.26 mL/min/kg, a VSS of 0.555 L/kg, an AUC0-24h of 3253 ng·h/mL and a Cmax of 1580 ng/mL. Also, the “Oral BA (F %)” value in data set [2] (male) was 54.1%. Further, the “AUC0-24 h relative to the control compound Amg-510” value in data set [2] (female cynomolgus monkey) is “more than 10 times”. The “AUC0-24 h relative to the control compound Amg-510” value in data set [2] (male cynomolgus monkey) is recorded as “more than 15 times”. The “Pharmacokinetic properties in words” value in data set [2] (monkey model) is “excellent pharmacokinetic properties”.

What is called Cmax is the highest concentration seen after dosing.
